Values of other authors, collected in US7351710B2, “Preparation of amorphous form of indiplon” (Mai De Ltd., priority 2005, dated 2008).

| SMILES | solubility in water (in words) (water) | solubility (in water, crystalline form) [µg/mL] |
| --- | --- | --- |
| CC(=O)N(C)c1cccc(-c2ccnc3c(C(=O)c4cccs4)cnn23)c1 [Indiplon, N-Methyl-N-[3-[3-[2-thienylcarbonyl]pyrazolo[1,5-a]pyrimidin-7-yl]phenyl]acetamide] | practically insoluble | – |
| CC(=O)N(C)c1cccc(-c2ccnc3c(C(=O)c4cccs4)cnn23)c1 [crystalline indiplon, N-Methyl-N-[3-[3-[2-thienylcarbonyl]pyrazolo[1,5-a]pyrimidin-7-yl]phenyl]acetamide] | – | 20 to 30 |
